From patent publication US9586966B2, “Piperazino[1,2-a]indol-1-ones and [1,4]diazepino[1,2-a]indol-one” (Hoffmann-La Roche Inc., priority 2013, dated 2017)

Columns and labels:
[1] = test system: human embryonic stem cell derived neural stem cells (NSCs); assay: Neural stem cell proliferation assay (neurogenesis assay, ATP levels by CellTiterGlo); assay type: cell-based; settings: 96 h, concentration at which 150% activity of control (100%) is reached, NSC proliferation, ATP levels after 4 days incubation, dose response 8 μM to 8 nM
Protocol: Neural Stem Cell Proliferation Assay
Neurogenic properties of small molecules are determined based on the proliferation of human embryonic stem cell derived neural stem cells (NSCs) which were derived via a dual smad inhibition as previously described (Chambers, S. M., et al., Highly efficient neural conversion of human ES and iPS cells by dual inhibition of SMAD signaling, Nature biotechnology, 2009. 27(3): p. 275-80.)
Compounds respond is measured by the increase in cells based on ATP levels (Promega:CellTiterGlo®) after an incubation period of 4 days.
NSCs are thawed and expanded over 3 passages. On the 14th day, NSCs are seeded in Polyornithin/Laminin coated 384 well plates at a cell density of 21′000 cells/cm^2 in a media volume of 38 μl. 4 hours after cell seeding, compound solutions are added at a volume of 2 μl. Stock solutions of the compounds (water, 5% DMSO) are diluted to obtain a dose response (11 points, dilution factor is 2), ranging from 8 μM to 8 nM. Controls are run to consistently determine the neurogenic properties of the cells:
Negative (neutral) control is cell culture Media (final DMSO concentration: 0.25%).
1. cell culture Media+100 ng/ml FGF2 (final DMSO concentration: 0.1%)
2. cell culture Media+20 ng/ml EGF (final DMSO concentration: 0.1%)
3. cell culture Media+100 ng/ml Wnt3a (final DMSO concentration: 0.1%)
After 4 days incubation at 37° C., 5% CO2, the amount of ATP per well is quantified. The ATP concentration is proportional to the cell number. ATP is quantified by using the Promega CellTiterGlo® kit. The CellTiterGlo® reagents contain a cell lysis buffer, a thermo stable luciferase (UltraGlo™ recombinant luciferase), magnesium and luciferin. Luciferin reacts with ATP producing oxyluciferin, AMP and light. The luminescence signal is proportional to the ATP content.
The value of negative (neutral) control is determined for each assay plate by taking the average of 16 negative control wells. The neurogenic compound response is calculated for each compound as (compound/Negative Control)*100.
The values of EC150 from the dose response curve are determined for each test compound. The EC150 is the compound concentration at which 150% activity of control (100%) is reached.

Row | Structure (SMILES) | melting point | EC (150% of control) [1]
1 | Cc1c2n(c3c(C)cc(C#N)cc13)CCCNC2=O [Example 35, 7,11-Dimethyl-1-oxo-2,3,4,5-tetrahydro-[1,4]diazepino[1,2-a]indole-9-carbonitrile] | 255 °C | 3.19 µM
2 | Cc1c2n(c3c(CC(C)C)cc(Cl)cc13)CCCNC2=O [Example 38, 9-Chloro-11-methyl-7-(2-methylpropyl)-2,3,4,5-tetrahydro-[1,4]diazepino[1,2-a]indol-1-one] | 176 °C | 0.37 µM
3 | Cc1c2n(c3c(C)cc(Cl)cc13)CCCNC2=O [Example 39, 9-Chloro-7,11-dimethyl-2,3,4,5-tetrahydro-[1,4]diazepino[1,2-a]indol-1-one] | 198 °C | 0.36 µM
4 | Cc1c2n(c3c(N4CCOCC4)cc(C#N)cc13)CCNC2=O [Example 41, 10-Methyl-6-morpholin-4-yl-1-oxo-3,4-dihydro-2H-pyrazino[1,2-a]indole-8-carbonitrile] | 276 °C | 0.092 µM
5 | Cc1c2n(c3c(N4CCS(=O)(=O)CC4)cc(C#N)cc13)CCCNC2=O [Example 42, 7-(1,1-Dioxo-1,4-thiazinan-4-yl)-11-methyl-1-oxo-2,3,4,5-tetrahydro-[1,4]diazepino[1,2-a]indole-9-carbonitrile] | 393 °C | 0.077 µM
6 | Cc1c2n(c3c(N4CCOCC4)cc(C#N)cc13)CCCNC2=O [Example 44, 11-Methyl-7-morpholin-4-yl-1-oxo-2,3,4,5-tetrahydro-[1,4]diazepino[1,2-a]indole-9-carbonitrile] | 227 °C | 0.046 µM
7 | N#Cc1cc(N2CCOCC2)c2c(c1)cc1n2CCNC1=O [Example 46, 6-Morpholin-4-yl-1-oxo-3,4-dihydro-2H-pyrazino[1,2-a]indole-8-carbonitrile] | 280 °C | 0.04 µM

More lines, main results first:

Row | melting point | Structure (SMILES) | EC (150% of control) [1]
8 | 175 °C | COc1cc(CC(C)C)c2c(c1)cc1n2CCNC1=O [Example 36, 8-Methoxy-6-(2-methylpropyl)-3,4-dihydro-2H-pyrazino[1,2-a]indol-1-one] | 4.1 µM
9 | 166 °C | CC(C)Cc1cc(OC(F)(F)F)cc2cc3n(c12)CCNC3=O [Example 37, 6-(2-Methylpropyl)-8-(trifluoromethoxy)-3,4-dihydro-2H-pyrazino[1,2-a]indol-1-one] | 0.89 µM
10 | 199 °C | CC(C)Cc1cc(C#N)cc2cc3n(c12)CCCNC3=O [Example 40, 7-(2-Methylpropyl)-1-oxo-2,3,4,5-tetrahydro-[1,4]diazepino[1,2-a]indole-9-carbonitrile] | 0.55 µM
11 | 404.5 °C | N#Cc1cc(N2CCS(=O)(=O)CC2)c2c(c1)cc1n2CCCNC1=O [Example 43, 7-(1,1-Dioxo-1,4-thiazinan-4-yl)-1-oxo-2,3,4,5-tetrahydro-[1,4]diazepino[1,2-a]indole-9-carbonitrile] | 0.98 µM
12 | 221 °C | N#Cc1cc(N2CCOCC2)c2c(c1)cc1n2CCCNC1=O [Example 45, 7-Morpholin-4-yl-1-oxo-2,3,4,5-tetrahydro-[1,4]diazepino[1,2-a]indole-9-carbonitrile] | 0.24 µM
